This is an account of results in patent US20250084074A1, “SUBSTITUTED HETEROCYCLES AS HSET INHIBITORS” (MERCK PATENT GMBH, priority 2022, published 2025).

Structures can show the parent of a compound that is named as a salt.

Chain of HSET full length protein (Q9BW19 whole entry): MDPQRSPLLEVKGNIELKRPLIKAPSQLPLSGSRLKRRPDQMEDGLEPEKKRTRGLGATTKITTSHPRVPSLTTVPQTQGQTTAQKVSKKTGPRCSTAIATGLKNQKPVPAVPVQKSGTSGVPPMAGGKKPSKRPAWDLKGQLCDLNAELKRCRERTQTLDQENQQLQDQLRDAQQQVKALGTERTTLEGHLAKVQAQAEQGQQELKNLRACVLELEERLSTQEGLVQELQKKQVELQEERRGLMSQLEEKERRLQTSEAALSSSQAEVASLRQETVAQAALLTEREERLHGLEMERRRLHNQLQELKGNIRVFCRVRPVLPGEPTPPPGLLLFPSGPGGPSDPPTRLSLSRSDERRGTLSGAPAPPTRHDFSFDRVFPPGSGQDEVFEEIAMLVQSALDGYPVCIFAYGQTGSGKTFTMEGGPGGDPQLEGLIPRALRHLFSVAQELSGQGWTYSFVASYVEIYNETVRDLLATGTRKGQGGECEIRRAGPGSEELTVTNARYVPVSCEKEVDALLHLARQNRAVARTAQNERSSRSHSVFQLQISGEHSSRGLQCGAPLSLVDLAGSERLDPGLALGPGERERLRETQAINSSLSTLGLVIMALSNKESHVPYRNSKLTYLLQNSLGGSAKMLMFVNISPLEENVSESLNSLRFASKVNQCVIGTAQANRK

This assay addresses HSET full length protein (Homo sapiens (Human), UniProt Q9BW19). Briefly: HSET ADP-Glo Assay S - 3 μM ATP. The assay is classed as biochemical. Particulars: 5 nM HSET, 70 μg/mL microtubule, 80 min at rt, read-out: COMBINED HSET ADP GLO IC50. The protocol:
Example 281: Testing compounds of the present invention for inhibitory activities against HSET—HSET ADP-Glo Assay S—3 μM ATP
Reagents: (+4° C. Storage) • Paclitaxel Prod.No.TXD.01 2 mM in DMSO (from Universal Biologicals Cambridge). • Tubulin Protein (Pre-formed Microtubules): Bovine Brain Prod.No.MT001-XL Lot.025 10 mg/mL (from Universal Biologicals Cambridge).
Reagents: (−80° C. Storage) • MT001-XL—Tubulin Protein (Pre-formed Microtubules): Bovine Brain—reconstituted in buffer—15 mM PIPES pH7, 1 mM MgCl2, 20 μM paclitaxel (aliquots at 10 mg/mL) from Universal Biologicals Cambridge. • HSET full length protein—Current batch is FL HSET Prep1 (SEQ-000096_002-01_01) • Buffer is 20 mM Hepes pH 7.5, 200 mM NaCl, 2 mM TCEP, 5% glycerol (5 μL aliquots at 10.2 μM)
Reagents: (−20° C. Storage) • ADP-Glo Kinase Assay kit (Promega Prod.No.V9102) 10,000 assay points • ADP-Glo reagent (50 mL), Kinase Detection Reagent (100 mL), and Ultrapure ATP (10 mM) aliquoted
Buffer Stocks (filtered and stored at rt for up to 1 month) • HEPES acid, 4-(2-Hydroxyethyl)piperazine-1-ethanesulfonic acid MW:238, 238.3 mg/mL=1 M • 7149 mg/30 mL=1M (pH to 6.8 with 5 M NaOH) • PIPES, 1,4-Piperazinediethanesulfonic acid MW: 302.4, 30.24 mg/mL=100 mM; 907.2 mg/30 mL=100 mM (pH to 7 with 5 M NaOH, white cloudy suspension until the pH changes) • EGTA, Ethylene glycol-bis(2-aminoethylether)-N,N,N′,N′-tetraacetic acid MW: 380.35, 38.035 mg/mL=100 mM • 1901.75 mg/50 mL=100 mM (pH to ˜7 with 5 M NaOH)—takes a long time to get into solution and for pH to stabilize • Triton-X-100, MW: 625, 62.5 mg/mL=100 mM (6.25% w/v) (viscous, pipette Triton X-100 with a Gilson using a trimmed pipette tip)
ECHO Protocol • Create an ECHO intermediate plate by adding 24.5 μL DMSO to columns 1 & 2, and 40 μL DMSO to columns 23 & 24 of an ECHO 384PP plate • Add 100 nL of compound/DMSO per well in 384-well Proxi-Plate Plus (white) —Perkin Elmer Cat #6008289 using ECHO dose response protocol 100 nL normal to proxi_8pt_200 uM.
Assay buffer (Keep on ice): HEPES pH 6.8, MgCl2, EGTA, Triton X-100, DTT, HPLC H2O Microtubule Working Solution (3.2): • 1 ml PM buffer: PIPES pH 7.0, MgCl2, HPLC H2O, Paclitaxel, mix well, store at rt • Then add 26.4 μL of 10 mg/ml microtubules to 724 μL of the above PM buffer to make 750 μL of microtubule working solution @350 μg/mL microtubules (store at rt)
Stock HSET enzyme solution (3.1)—keep on ice • Add 1.33 μL 10.2 μM HSET Prepi (SEQ-000096_002-01_01) to 1358 μL assay buffer to make a 10 nM stock for a 5 nM final assay concentration (1/1020 dilution).
HSET/Microtubule working solution (3.3) • Mix solutions 3.1 and 3.2 in the ratio of 2.5:1 (1214.3 μL 3.1+485.7 μL 3.2) keep at rt for 15 min • 3.2 is diluted 3.5-fold, 3.1 is diluted 1.4-fold BLANK solution is 357 μL 2XAB+143 μL microtubule working solution 3.2. (Same proportions as HSET/Microtubule working solution (3.3))
ATP Working solution is 1 μL 10 mM UltraPure ATP (Promega kit)+999 μL ddH20 gives 10 μM ATP for a 3 μM final assay concentration, stored on ice.
Assay procedure in PROXIPLATE 384 PLUS WHITE (Perkin Elmer) plates (Remove 2.4 mL ADP Glo and 4.5 mL Kinase detection reagent from freezer to warm up to rt) • Add 3.5 μL BLANK solution to assay plate (column 12) • Add 3.5 μL HSET/Microtubule solution (3.3) (columns 1-11 & 13-24) • Centrifuge at 1000 rpm for 1 min • (pre-incubate enzyme and compound for 10 min)
Add 1.5 μL of 10 μM ATP to start reaction gives a final [HSET] of 5 nM, [ATP] of 3 μM and [microtubule] of 70 μg/mL, centrifuge at 1000 rpm for 1 min and incubated at rt for 80 min.
After the 80-minute incubation, stop reaction by adding 5 μL ADP-Glo reagent to all wells. Centrifuge for 1 min at 1000 rpm, leave for 40 min at rt.
In the dark/away from direct light, add 10 μL Kinase Detection Reagent (KDR) to all wells, Seal plate with a Topseal (Perkin Elmer Cat #6050185) and centrifuge as above, leave for 40 min at rt covered in foil. […]
(In general: In ADP-Glo the light output rises with the ADP produced.)
Regarding `CCCOC(=O)c1sc(NC(=O)CCNC(=O)c2cc(C(=O)OC)cc(-c3noc(C)n3)c2)nc1C` [Example 44, Propyl 2-(3-(3-(methoxycarbonyl)-5-(5-methyl-1,2,4-oxadiazol-3-yl)benzamido)propanamido)-4-methylthiazole-5-carboxylate], the IC50 (as a rule, the concentration that gives 50% inhibition) is 281 nM.
The same measure for `CCOC(=O)c1sc(NC(=O)CCNc2nccc3ccc(-c4noc(C)n4)cc23)nc1C` [Example 45, Ethyl 4-methyl-2-[3-[[7-(5-methyl-1,2,4-oxadiazol-3-yl)-1-isoquinolyl]amino]propanoylamino]thiazole-5-carboxylate]: 5 nM; for `COC(=O)c1sc(NC(=O)CCNc2nccc3ccc(-c4noc(C)n4)cc23)nc1C` [Example 46, Methyl 4-methyl-2-[3-[[7-(5-methyl-1,2,4-oxadiazol-3-yl)-1-isoquinolyl]amino]propanoylamino]thiazole-5-carboxylate]: 37 nM; for `Cc1nc(-c2ccc3ncnc(NCCC(=O)Nc4nc(C)c(C(C)(C)C)s4)c3c2)no1` [Example 47, N-(5-tert-butyl-4-methyl-thiazol-2-yl)-3-[[6-(5-methyl-1,2,4-oxadiazol-3-yl)quinazolin-4-yl]amino]propanamide formate]: 147 nM.
The result for `Cc1nc(-c2ccc3ncnc(N[C@H]4C[C@@H](C(=O)Nc5nc(C)c(C(=O)OC(C)(C)C)s5)C4)c3c2)no1` [Example 48, tert-Butyl 4-methyl-2-((1 s,3s)-3-((6-(5-methyl-1,2,4-oxadiazol-3-yl)quinazolin-4-yl)amino)cyclobutane-1-carboxamido)thiazole-5-carboxylate] reads 68 nM; that for `Cc1nc(-c2ccc3ncnc(N[C@H]4C[C@@H](C(=O)N(C)c5nc(C)c(C(=O)OC(C)(C)C)s5)C4)c3c2)no1` [Example 49, tert-Butyl 4-methyl-2-((1 s,3s)-N-methyl-3-((6-(5-methyl-1,2,4-oxadiazol-3-yl)quinazolin-4-yl)amino)cyclobutane-1-carboxamido)thiazole-5-carboxylate formate], 59 nM.
As to `Cc1nc(-c2ccc3ccnc(NCCC(=O)Nc4nc(C)c(C5(C(F)(F)F)CC5)s4)c3c2)no1` [Example 52], the IC50 came out at 152 nM.
The result for `CCCOC(=O)c1sc(NC(=O)CCNc2nccc3ccc(-c4noc(C)n4)cc23)nc1C` [Example 54, Propyl 4-methyl-2-(3-((7-(5-methyl-1,2,4-oxadiazol-3-yl)isoquinolin-1-yl)amino)propanamido)thiazole-5-carboxylate] reads 3 nM; that for `Cc1nc(-c2ccc3ccnc(NCCC(=O)Nc4ncc(C#N)s4)c3c2)no1` [Example 55], 1130 nM; that for `Cc1nc(-c2ccc3ccnc(NCCC(=O)Nc4cc(C(F)(F)F)n(C)n4)c3c2)no1` [Example 56, 3-((7-(5-methyl-1,2,4-oxadiazol-3-yl)isoquinolin-1-yl)amino)-N-(1-methyl-5-(trifluoromethyl)-1 H-pyrazol-3-yl)propenamide], 1260 nM.
The result for `CCCCCc1cc(NC(=O)CCNc2nccc3ccc(-c4noc(C)n4)cc23)nn1C` [Example 57, 3-((7-(5-methyl-1,2,4-oxadiazol-3-yl)isoquinolin-1-yl)amino)-N-(1-methyl-5-pentyl-1 H-pyrazol-3-yl)propanamide] reads 166 nM.
For the compound `Cc1nnn(-c2cccc(C(=O)NCCC(=O)Nc3nc(C)c(C(C)(C)C)s3)c2)n1` [Example 59, N-(3-((5-(tert-butyl)-4-methylthiazol-2-yl)amino)-3-oxopropyl)-3-(5-methyl-2H-tetrazol-2-yl)benzamide], the IC50 came to 278 nM.
The same measure for `CNCCC[C@@H](CC(=O)Nc1nc(C)c(C(C)(C)C)s1)NC(=O)c1cccc(-n2nnc(C)n2)c1` [Example 60, (S)-N-(1-((5-(tert-butyl)-4-methylthiazol-2-yl)amino)-6-(methylamino)-1-oxohexan-3-yl)-3-(5-methyl-2H-tetrazol-2-yl)benzamide]: 54 nM.
The result for `CCOC(=O)c1cnc(NC(=O)CCNC(=O)c2cccc(-c3noc(C)n3)c2)s1` [Example 61, Ethyl 2-(3-(3-(5-methyl-1,2,4-oxadiazol-3-yl)benzamido)propanamido)-thiazole-5-carboxylate] reads 819 nM; that for `COC(=O)c1sc(NC(=O)CCNC(=O)c2cccc(-c3noc(C)n3)c2)nc1C` [Example 62, Methyl 4-methyl-2-(3-(3-(5-methyl-1,2,4-oxadiazol-3-yl)benzamido)propanamido)thiazole-5-carboxylate], 1210 nM; that for `CCCOC(=O)c1sc(NC(=O)CCNC(=O)c2cccc(-c3noc(C)n3)c2)nc1C` [Example 63, Propyl 4-methyl-2-(3-(3-(5-methyl-1,2,4-oxadiazol-3-yl)benzamido)propanamido)thiazole-5-carboxylate], 11 nM.
The same measure for `CCCCc1sc(NC(=O)CCNC(=O)c2cccc(-c3noc(C)n3)c2)nc1C` [Example 64, N-(3-((5-butyl-4-methylthiazol-2-yl)amino)-3-oxopropyl)-3-(5-methyl-1,2,4-oxadiazol-3-yl)benzamide]: 348 nM.
For the compound `CCOC(=O)c1sc(NC(=O)CC(C)(C)NC(=O)c2cccc(-c3noc(C)n3)c2)nc1C` [Example 65, Ethyl 4-methyl-2-(3-methyl-3-(3-(5-methyl-1,2,4-oxadiazol-3-yl)benzamido)butanamido)thiazole-5-carboxylate], the IC50 worked out at 4100 nM.
Take `Cc1nc(-c2cccc(C(=O)NCCC(=O)Nc3nc(C)c(C(=O)OC(C)C)s3)c2)no1` [Example 66, Isopropyl 4-methyl-2-(3-(3-(5-methyl-1,2,4-oxadiazol-3-yl)benzamido)propanamido)thiazole-5-carboxylate]: the IC50 came to 40 nM.
The result for `COCCOC(=O)c1sc(NC(=O)CCNC(=O)c2cccc(-c3noc(C)n3)c2)nc1C` [Example 67, 2-Methoxyethyl 4-methyl-2-(3-(3-(5-methyl-1,2,4-oxadiazol-3-yl)benzamido)propanamido)thiazole-5-carboxylate] reads 419 nM; that for `Cc1nc(-c2cccc(C(=O)NCCC(=O)Nc3nc(C)c(C(=O)OCC(C)C)s3)c2)no1` [Example 68, Isobutyl 4-methyl-2-(3-(3-(5-methyl-1,2,4-oxadiazol-3-yl)benzamido)propanamido)thiazole-5-carboxylate], 33 nM.
The result for `COCCCCOC(=O)c1sc(NC(=O)CCNC(=O)c2cccc(-c3noc(C)n3)c2)nc1C` [Example 69, 4-Methoxybutyl 4-methyl-2-(3-(3-(5-methyl-1,2,4-oxadiazol-3-yl)benzamido)propanamido)thiazole-5-carboxylate] reads 50 nM.
